Data reported in patent US20180344690A1, “Methods and Formulation for Enhancing Response to Radiotherapy” (The Board of Trustees of the Leland Stanford Junior …, priority 2017, published 2018).
Like-named read-outs stand apart in the source and are kept apart here.

Experiments:
[1] = system: APL; details: cited from earlier work
[2] = system: CD34+ cells; details: cited from earlier work
[3] = system: CD34+ cell mobilization; details: cited from earlier work
[4] = target: CXCR4 (Homo sapiens, UniProt P61073); details: cited from earlier work
CXCR4, sequence (P61073 whole entry): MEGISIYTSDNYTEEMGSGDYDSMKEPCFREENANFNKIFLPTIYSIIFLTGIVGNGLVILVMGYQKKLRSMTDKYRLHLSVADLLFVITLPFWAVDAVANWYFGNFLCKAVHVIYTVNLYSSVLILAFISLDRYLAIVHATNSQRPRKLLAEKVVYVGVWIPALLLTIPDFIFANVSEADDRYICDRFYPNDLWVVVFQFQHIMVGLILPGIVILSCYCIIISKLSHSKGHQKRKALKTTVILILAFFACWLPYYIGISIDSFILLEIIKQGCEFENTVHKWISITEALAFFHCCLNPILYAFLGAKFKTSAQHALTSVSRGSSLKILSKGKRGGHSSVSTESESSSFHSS

[5] = system: AML and MDS; details: cited from earlier work
[6] = cells collected by Plerixafor plus G-CSF

**Q.** Which “anti-tumor effect of Plerixafor alone” value ([1]; in these experiments (leukemia models)) does the source give for `c1cc(CN2CCCNCCNCCCNCC2)ccc1CN1CCCNCCNCCCNCC1` [Plerixafor] here?
**A.** The value was “no detectable anti-tumor effect”.

**Q.** What about the median overall survival ([1]; untreated control 18 days, cytarabine vs cytarabine+Plerixafor p<0.0006) of the same compound?
**A.** The median overall survival was 19 days.

**Q.** And the “patients achieving ≥5×10^6 CD34+ cells/kg” value ([2]; Plerixafor plus G-CSF compared to G-CSF alone)?
**A.** The value was “More patients”.

**Q.** What about the “CD34+ cells mobilized in patients who mobilized poorly with G-CSF alone” value ([2]; Plerixafor plus G-CSF, nine patients, all patients) of the same compound?
**A.** Its value is > 2×10^6 CD34+ cells/kg.

**Q.** What about the “median day of platelet engraftment” value [2, 6] of the same compound?
**A.** Its value is 17 days.

**Q.** What about the “median day of polymorphonuclear leukocyte (PMN) engraftment” value [2, 6] of the same compound?
**A.** Its value is 10 days.

**Q.** What about the “drug-related serious or unexpected adverse effects” value ([2]; human, in vivo) of the same compound?
**A.** Its value is “no drug-related serious adverse effects or unexpected adverse effects”.

**Q.** And the “most frequently reported adverse effects” value ([3]; human, in vivo)?
**A.** The value was “injection site reactions, gastrointestinal (GI) effects, paresthesias, and headaches”.

**Q.** What about the “augmentation of CD34+ cell mobilization by G-CSF” value ([3]; on average) of the same compound?
**A.** The value was 3.8 fold.

**Q.** What about the safety and tolerability ([3]; single SC dose 160 or 240 μg/kg alone or added to G-CSF) of the same compound?
**A.** Its safety and tolerability is “generally safe and well-tolerated”.

**Q.** And the “inhibition of the binding of SDF-1a (CXCL12) to CXCR4” value [4]?
**A.** The value was “reversible inhibitor”.

**Q.** What about the circulating neutrophils (days 4, 8, 15, 22, 29 during infusion vs Screening (FIG. 8A)) of the same compound?
**A.** Its circulating neutrophils is “increase of neutrophils”.

**Q.** And the circulating monocytes (days 4, 8, 15, 22, 29 during infusion vs Screening (FIG. 8B))?
**A.** Its circulating monocytes is “increase in monocytes”.

**Q.** And the “early death due to complications from intracranial hemorrhage” value ([5]; 1 patient)?
**A.** The value was 4%.

**Q.** And the “treatment failure due to persistent disease” value ([5]; 1 patient)?
**A.** The value was 4%.

**Q.** What about the “Grade I-II GVHD” value ([5]; 10/27 patients) of the same compound?
**A.** Its value is 37%.

**Q.** What about the “treatment failure due to relapsed disease” value ([5]; 10 patients) of the same compound?
**A.** Its value is 37%.

**Q.** And the “patients with common grade 3 adverse events” value ([5]; 24/27, neutropenic fever, infections, or rash)?
**A.** Its value is 89%.

**Q.** What about the “Median progression-free survival (PFS)” value ([5]; all patients, 95% CI: 18.1-33.9 wks) of the same compound?
**A.** Its value is 26.6 wks.

**Q.** And the “Grade III-IV GVHD” value ([5]; human, in vivo, iv)?
**A.** The value was “no occurrences”.

**Q.** What about the “toxicities ascribed to the G-CSF/Plerixafor component of the regimen” value ([5]; human, in vivo) of the same compound?
**A.** Its value is “no toxicities ascribed”.

**Q.** What about the “patients achieving a CR” value ([5]; of the 19 patients with active disease at study entry) of the same compound?
**A.** Its value is 18.

**Q.** And the “platelet recovery (plt >20 k/mm3), median” value ([5]; range 9-74 d)?
**A.** The value was 12 days.

**Q.** What about the “neutrophil recovery (ANC >500/mm3), median” value ([5]; range 10-19) of the same compound?
**A.** The value was 12.5 days.

**Q.** And the “Median progression-free survival (PFS)” value ([5]; relapsed patients, 95% CI: 12.1-26.6 wks)?
**A.** Its value is 15.7 wks.
